Test results from patent US7314858B2, “Retrocyclins: antiviral and antimicrobial peptides” (priority 2001, dated 2008).
Where a SMILES comes first, the peptide text is derived from it. Bridges are numbered along the chain shown (N, C = ends).

Columns and labels:
HIV-1 IIIB = assay: Activity of theta-defensins against HIV-1 IIIB (FIG. 21); format: cell-based
Excerpt: (§1) FIG. 21A-21B. Activity of theta-defensins against HIV-1 BAL; and HIV-1 IIIB.
(§2) The data shown in FIGS. 21A and 21B illustrate the activity of these retrocyclin-related peptides against two different strains of HIV-1, BAL and IIIB. […] BAL and IIIB are widely studied, laboratory adapted strains of HIV.

HIV-1 BAL = assay: Activity of theta-defensins against HIV-1 BAL (FIG. 21); format: cell-based
Excerpt: as §1, §2

HIV-1 = conditions: cited from earlier work
MTT cytotoxicity assay = format: cell-based, human; conditions: human, H9 cells
Experimental: FIG. 8. Cytotoxicity of antimicrobial peptides against H9 cells. Retrocyclin, RTD-1 and PG-1 (a porcine-derived peptide with anti-HIV-1 activity) were tested for cytotoxicity using an MTT assay for cell proliferation. Note that the EC50 of Retrocyclin and RTD-1 were >100 μg/ml, concentrations well above their antiviral concentration.
Retrocyclin is not cytotoxic. […] Retrocyclin was not hemolytic for human erythrocytes.

E. coli ML-35p = assay: Two-stage radial diffusion assay; format: cell-based, Escherichia coli
Experimental: (§3) FIG. 4. Effect of salt on antibacterial activity of circular minidefensins. Human retrocyclin and monkey RTD-1 were tested against our standard lab stains: E. coli ML-35p, P. aeruginosa MR 3007, L. monocytogenes EGD, and S. aureus 930918. The bars show MIC values±SEM values that resulted from 3-6 radial diffusion assays per organism and assay condition.
(§4) The effects of NaCl on the antimicrobial activity of retrocyclin and RTD-1, from two-stage radial diffusion assays, are compared in FIG. 4.

L. monocytogenes EGD = assay: Two-stage radial diffusion assay; format: cell-based, Listeria monocytogenes
Experimental: as §3, §4

HIV-1 strain IIIB = assay: HIV-1 IIIB infection of H9 cells, p24 antigen ELISA; format: cell-based; conditions: H9 cells, IIIB (X4), peptide 10-20 μg/ml
Experimental: FIG. 1. Circular minidefensins reduce HIV-1 infection of H9 cells. HIV-I strain IIIB (MOI=10^−2) was incubated with 2.5×10^5 H9 cells in the presence or absence of 20 μg/ml RTD-1, RTD-2 or RTD-3. p24 antigen release was monitored by ELISA on days 3, 6, and 9. Assay sensitivity=10 pg/ml.
Immortalized CD4^+ H9 cells, which are permissive for infection with this strain, were maintained in RPMI supplemented with 10% heat-inactivated fetal calf serum (FCS), 10 mM HEPES, 2 mM glutamine, 100 U of penicillin/ml, and 10 μg of streptomycin/ml (R10 media). Cells (2.5×10^5/100 μl) were incubated with virus (multiplicity of infection (MOI)=10^−2) in the presence or absence of 20 μg/ml RTD-1, RTD-2 or RTD-3 for 3 hrs at 37° C./5% CO2. The cells were washed in R10 media, seeded in 48-well tissue culture plates in 1 ml R10 media, and incubated at 37° C./5% CO2 for 9 days. Aliquots of cell supernatant were removed at the specified time points and analyzed by a sensitive ELISA (DuPont NEN) that quantitates p24 antigen of HIV-1. The three circular rhesus minidefensins were similarly active, inhibiting HIV-1 by 100-1000 fold by 9 days post-inoculation (note the logarithmic scale).
Either HIV-1-permissive H9 cells were used as targets, or primary CD4^+ lymphocytes from HIV-1-seronegative donors generated from freshly purified peripheral blood mononuclear cells (PBMC) stimulated with a CD3-CD8 bispecific monoclonal antibody. After approximately 7 days, when 98% of these cells co-expressed CD3 and CD4, they were infected with HIV-1 with or without retrocyclin or other test peptide. These cells were maintained in RPMI containing 10% FCS supplemented with 2 mM glutamine, 100 U of penicillin/ml, 10 μg of streptomycin/ml, and 50 U of interleukin 2/ml (R10-50 media).
Mature retrocyclin was prepared by a three-step process.

Orang-2: cyclic GVCRC ICGRG VCRCI CRR (SEQ ID NO:134) (cyclo(GVCRCICGRGVCRCICRR); disulfide (positions not given here); ring closure inferred; not fully specified (bridges))
potency against HIV-1 IIIB (HIV-1 IIIB): more potent than retrocyclins 1 and 2 and RC101 | potency against HIV-1 BAL (HIV-1 BAL): more potent than retrocyclins 1 and 2 and RC101

indolicidin
concentration reproducibly virucidal against HIV-1 (HIV-1): 333 µg/mL

CC[C@H](C)[C@@H]1NC(=O)[C@@H]2CSSC[C@H](NC(=O)[C@H](CCCNC(=N)N)NC(=O)[C@@H]3CSSC[C@H](NC1=O)C(=O)N[C@@H]([C@@H](C)O)C(=O)N[C@@H](CCCNC(=N)N)C(=O)NCC(=O)N[C@@H](Cc1ccccc1)C(=O)N3)C(=O)N[C@@H](CC(C)C)C(=O)N[C@H]1CSSC[C@H](NC(=O)[C@H](C(C)C)NC(=O)CNC(=O)[C@H](CCCNC(=N)N)NC(=O)[C@H](CCCNC(=N)N)NC1=O)C(=O)N[C@@H](CCCNC(=N)N)C(=O)N2 [RTD-1, reference compound] (cyclo(GFCRCLCRRGVCRCICTR); disulfide 3-16, 5-14, 7-12)
EC50 (MTT cytotoxicity assay): > 100 µg/mL | effect of salt on antimicrobial activity (E. coli ML-35p; hypersalinity (175 mM NaCl)): only modestly inhibitory | antimicrobial activity (E. coli ML-35p; physiological (100 mM) NaCl): strong activity | effect of salt on antimicrobial activity (L. monocytogenes EGD; hypersalinity (175 mM NaCl)): only modestly inhibitory | antimicrobial activity (L. monocytogenes EGD; physiological (100 mM) NaCl): strong activity | inhibition of HIV-1 replication (p24) (HIV-1 strain IIIB): protective to a lesser extent than retrocyclin
